Laboratory results from US20040054194A1, “Method for producing 1-pyrrolines” (priority 2003, published 2004).
Where two headings read alike, the source gives them in different places.

Experiments:
[1] = logP determination by HPLC on a reversed-phase column (C 18), EEC Directive 79/831 Annex V.A8; type: physicochemical; conditions: reversed-phase HPLC column (C 18), pH 2.3, HPLC
Procedure: The logp values given in the tables and Preparation Examples above are determined in accordance with EEC Directive 79/831 Annex V .A8 by HPLC (High Performance Liquid Chromatography) on a reversed-phase column (C 18). Temperature: 43° C.
The determination is carried out in the acidic range at pH 2.3 using the mobile phases 0.1% aqueous phosphoric acid and acetonitrile; linear gradient from 10% acetonitrile to 90% acetonitrile.
Calibration is carried out using unbranched alkan-2-ones (of 3 to 16 carbon atoms) with known logp values (determination of the logp values by the retention times using linear interpolation between two successive alkanones).

[2] = acidic range pH 2.3, pyrrolines of the formula (I), read-out: logP*
[3] = pH 2.3, read-out: log P (pH 2.3)
[4] = acidic range pH 2.3, amides of the formula (II), read-out: logP*

Structure (SMILES) | chromatographic logP [1, 2] | chromatographic logP [1, 3] | melting point | chromatographic logP [1, 4] | chromatographic logP ([1]; acidic range pH 2.3, cyclopropanes of the formula (III), read-out: logP*) | chromatographic logP ([1]; acidic range pH 2.3, chalcones of the formula (VI), read-out: logP*)
Fc1cccc(F)c1C1=NC(c2ccc(Br)cc2)CC1 (centres unmarked) [Example I-1, 2-(4-bromophenyl)-5-(2,6-difluorophenyl)-3,4-dihydro-2H-pyrrole] | 2.77 | 2.74 | 48 °C |  |  | 
Fc1cccc(F)c1C1=NC(c2ccc(Cl)cc2)CC1 (centres unmarked) [Example I-2, 2-(4-chlorophenyl)-5-(2,6-difluorophenyl)-3,4-dihydro-2H-pyrrole] | 2.59 | 2.59 |  |  |  | 
CC(=O)NC(CCC(=O)c1c(F)cccc1F)c1ccc(Br)cc1 (centres unmarked) [II-1, N-[1-(4-bromophenyl)-4-(2,6-difluorophenyl)-4-oxobutyl]acetamide] |  | 2.67 | 162 to 163 °C | 2.67 |  | 
CC(=O)NC(CCC(=O)c1c(F)cccc1F)c1ccc(Cl)cc1 (centres unmarked) [II-2, N-[1-(4-chlorophenyl)-4-(2,6-difluorophenyl)-4-oxobutyl]acetamide] |  | 2.59 |  | 2.59 |  | 

The next lines start with the values.

chromatographic logP [1, 2] | chromatographic logP [1, 3] | melting point | chromatographic logP [1, 4] | chromatographic logP ([1]; acidic range pH 2.3, cyclopropanes of the formula (III), read-out: logP*) | chromatographic logP ([1]; acidic range pH 2.3, chalcones of the formula (VI), read-out: logP*) | Structure (SMILES)
 |  |  | 3.79 |  |  | CC(=O)NC(CCC(=O)c1c(F)cccc1F)c1ccc(-c2ccc(OC(F)(F)F)cc2)cc1 (centres unmarked) [II-3]
 | 4.24 | 64 to 65 °C |  | 4.22 |  | O=C(c1c(F)cccc1F)C1CC1c1ccc(Br)cc1 (centres unmarked) [III-1, [2-(4-bromophenyl)cyclopropyl](2,6-difluoro-phenyl)methanone]
 | 3.98 | 71 °C |  |  | 3.98 | O=C(/C=C/c1ccc(Br)cc1)c1c(F)cccc1F [VI-1, (2E)-3-(4-bromophenyl)-1-(2,6-difluorophenyl)-2-propen-1-one]
